Source: patent US5800838A, “Composition that inhibits or destroys at least one unicellular living organism containing fluorine F- and Lithium li+” (priority 1987, dated 1998)
≈ marks a conversion by molar mass, not a printed value. Each block holds one compound with its values, some of them ahead of it.

Tests used:
Assay type in all cases: cell-based
[1] = system: spermatozoa; assay: SANDERS-CRAMER total spermicidal test according to IPPF standards
[2] = system: Gardnerella vaginalis; assay: Number of strains inhibited, bactericidal substance incorporated in culture medium (first trial); conditions: NaF or LiF 1 mg/l where added
Description: In the first trial, the sample of bactericidal substance was incorporated directly in the specific culture edium of the microorganism. A concentration series of the bactericidal substance was prepared in the geometric ratio of 2, from 400 μg/ml to 1.56 μg/ml. The cell concentration used in the seeding of the Petri dishes was […]. A 24-hour incubation was performed at 37° C. and then, for each wild-type strain tested, the concentration of primary principle destroying all the microorganisms (see method of Professor F. CATALAN et al., Institut A. FOURNIER, PARIS) was determined. The trail was performed on 32 wild-type strains of Gardnerella vaginalis originating from hospital sources and with benzalkonium chloride and then nonoxinol 9 as active principles, and with sodium fluoride NaF at a concentration of 1 mg/l and then lithium fluoride LiF at a concentration of 1 mg/l as activating principles.

[3] = system: Pseudomonas aeruginosa; assay: MIC on 200 wild-type strains of Pseudomonas aeruginosa (Examples 19 and 20)
Description: With the same methodology as above, the MIC values of benzalkonium chloride alone, in the presence of the KATHON CG (registered trademark) preservative (1 mg/l), and then in the presence of KATHON CG (registered trademark) (1 mg/l) and lithium fluoride (1 mg/l), were determined. 200 wild-type strains of Pseudomonas aeruginosa were tested.
The same trial as in Example 19 was performed, but with nonoxinol 9 as the primary active principle: 200 wild-type strains of Pseudomonas aeruginosa were also tested.

[4] = system: Pseudomonas aeruginosa; assay: MIC of antibiotics by microdilution in liquid medium on plates (Example 18); conditions: for MIC: Pseudomonas aeruginosa, read-out: MIC (average MIC value)
Description: The unicellular living organism chosen for the trials is Pseudomonas aeruginosa (wild-type strain originating from hospital sources).
The same methodology as for Examples 11 and 12 was follows. Bacteriostatic analyses were performed with a number of antibiotics belonging to benzylpenicillins, and aminopenicillins, and first and second generation cephalosporins, namely:
The determination of the MIC was carried out by the microdilution method in liquid medium on plates. Aqueous solutions of each antibiotic are prepared in MUELLER HINION broth, to obtain dilutions in a geometric ratio of 2. The solvent is sterile double-distilled water.
The preparation of the bacterial inoculum is made with a culture of Pseudomonas aeruginosa, with agitation on a water bath at 37° C. for 4 to 6 hours, giving 10^6 bacteria/ml.
Three trials were performed per antibiotic and per bacterial inoculum. The trials were performed first with the antibiotics alone (trials a).sctn., and then with the addition of a dose of 1 mg/l of an aqueous solution of lithium fluoride (trials b).sctn. to the dilution of each one in every cup of every plate.

[5] = system: Pseudomonas aeruginosa; assay: Resistance of Pseudomonas aeruginosa to antiseptics in terms of water hardness and proteins;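 further: R means colony growth observed and S means no significant growth; key: R: resistant (a growth of colonies was observed); S: sensitive (no significant growth was observed)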
Description: The resistance of Pseudomonas aeruginosa to various reputedly bactericidal active principles or commercial antiseptics was studied in terms of the hardness of the water and the presence or absence of proteins. The same trial was carried out on the foaming paste according to the invention (see Example 15).

[6] = alone, strain lic R βLac^+ cephalosporinase
[7] = alone, strain lic S βLac^- (first column)
[8] = alone, strain lic S βLac^- (second column)

Structure (SMILES): [Li+] [Li^+ ions]
spermicidal effect ([1]; in words): A spermicidal effect

Structure (SMILES): CCCCCCCCCc1ccc(OCCOCCOCCOCCOCCOCCOCCOCCOCCO)cc1 [Nonoxinol 9]
number of strains inhibited out of the 32 tested ([2]; primary active principle 1.56 mg/l): 0
number of strains inhibited out of the 32 tested ([2]; primary active principle 3.125 mg/l): 0
number of strains inhibited out of the 32 tested ([2]; primary active principle 6.25 mg/l): 0
number of strains inhibited out of the 32 tested ([2]; primary active principle 12.5 mg/l): 0
number of strains inhibited out of the 32 tested ([2]; primary active principle 25 mg/l): 4
number of strains inhibited out of the 32 tested ([2]; primary active principle 50 mg/l): 6
number of strains inhibited out of the 32 tested ([2]; primary active principle 100 mg/l): 10
number of strains inhibited out of the 32 tested ([2]; primary active principle 200 mg/l): 25
number of strains inhibited out of the 32 tested ([2]; primary active principle 400 mg/l): 32
MIC ([3]; + KATHON CG (1 mg/l) + LiF (1 mg/l), strain Tic R βLac^+): 64 µg/mL
MIC ([3]; + KATHON CG (1 mg/l) + LiF (1 mg/l), strain Tic R βLac^+ OXA): 64 µg/mL
MIC ([3]; + KATHON CG (1 mg/l) + LiF (1 mg/l), strain Tic R βLac^+ PSE): 64 µg/mL
MIC ([3]; + KATHON CG (1 mg/l) + LiF (1 mg/l), strain Tic R βLac^+ TEM): 64 µg/mL
MIC ([3]; + KATHON CG (1 mg/l) + LiF (1 mg/l), strain Tic R βLac^+ cephalosporinase): 128 µg/mL
MIC ([3]; + KATHON CG (1 mg/l) + LiF (1 mg/l), strain Tic S βLac^-): 32 µg/mL
MIC ([3]; alone, strain Tic R βLac^+): 128 µg/mL (≈ 208 µM)
MIC ([3]; alone, strain Tic R βLac^+ OXA): 128 µg/mL (≈ 208 µM)
MIC ([3]; alone, strain Tic R βLac^+ PSE): 64 µg/mL (≈ 104 µM)
MIC ([3]; alone, strain Tic R βLac^+ TEM): 128 µg/mL (≈ 208 µM)
MIC ([3]; alone, strain Tic R βLac^+ cephalosporinase): 256 µg/mL (≈ 415 µM)
MIC ([3]; alone, strain Tic S βLac^-): 64 µg/mL (≈ 104 µM)

MIC ([4]; + LiF 1 mg/l, strain lic R βLac^+ OXA): 64 µg/mL
MIC ([4]; + LiF 1 mg/l, strain lic R βLac^+ PSE): 64 µg/mL
MIC ([4]; + LiF 1 mg/l, strain lic R βLac^+ TEM): 64 µg/mL
MIC ([4]; + LiF 1 mg/l, strain lic R βLac^+ cephalosporinase): 128 µg/mL
MIC ([4]; + LiF 1 mg/l, strain lic S βLac^- (first column)): 8 µg/mL
MIC ([4]; + LiF 1 mg/l, strain lic S βLac^- (second column)): 8 µg/mL
MIC ([4]; alone, strain lic R βLac^+ OXA): 64 µg/mL
MIC ([4]; alone, strain lic R βLac^+ PSE): 128 µg/mL
MIC ([4]; alone, strain lic R βLac^+ TEM): 64 µg/mL
MIC [4, 6]: 128 µg/mL
MIC [4, 7]: 8 µg/mL
MIC [4, 8]: 16 µg/mL
Structure (SMILES): CCN1CCN(C(=O)N[C@@H](C(=O)N[C@@H]2C(=O)N3[C@@H]2SC(C)(C)[C@@H]3C(=O)O)c2ccccc2)C(=O)C1=O [PIPERACILLIN, piperacillin]

Structure (SMILES): O=S(=O)([O-])[O-].[Zn+2] [Zinc sulphate]
resistance ([5]; 0.2 ml inoculum, contact time 10 mn, distilled water, P+): R
resistance ([5]; 0.2 ml inoculum, contact time 10 mn, distilled water, P-): R
resistance ([5]; 0.2 ml inoculum, contact time 10 mn, hard water, P+): R
resistance ([5]; 0.2 ml inoculum, contact time 10 mn, hard water, P-): R
resistance ([5]; 0.4 ml inoculum, contact time 20 mn, distilled water, P+): R
resistance ([5]; 0.4 ml inoculum, contact time 20 mn, distilled water, P-): R
resistance ([5]; 0.4 ml inoculum, contact time 20 mn, hard water, P+): R
resistance ([5]; 0.4 ml inoculum, contact time 20 mn, hard water, P-): R
resistance ([5]; 0.6 ml inoculum, contact time 30 mn, distilled water, P+): R
resistance ([5]; 0.6 ml inoculum, contact time 30 mn, distilled water, P-): R
resistance ([5]; 0.6 ml inoculum, contact time 30 mn, hard water, P+): R
resistance ([5]; 0.6 ml inoculum, contact time 30 mn, hard water, P-): R

Structure (SMILES): [Cl-].[Li+] [lithium chloride]
MIC ([1]; alone): 20 ppm
MIC, equivalent in % ([1]; alone): 0.002%

Structure (SMILES): CC1(C)S[C@@H]2[C@H](NC(=O)[C@H](C(=O)O)c3ccsc3)C(=O)N2[C@H]1C(=O)O [ticarcillin]
number of strains resistant, of 958 strains tested [4]: 235
MIC ([4]; alone, strain lic R βLac^+ OXA): 512 µg/mL
MIC ([4]; alone, strain lic R βLac^+ PSE): 4100 µg/mL
MIC ([4]; alone, strain lic R βLac^+ TEM): 1020 µg/mL
MIC [4, 6]: 256 µg/mL
MIC [4, 7]: 32 µg/mL
MIC [4, 8]: 512 µg/mL
